The data set is described as follows: Stability of Form M2 on storage, polymorph checked by PXRD. The data set is classed as physicochemical. Here is the method:
In one aspect, the present invention provides crystalline ixazomib citrate form M1. The ixazomib citrate forms of the present invention, including form M1, prepared by methods disclosed herein, may be characterized by PXRD. Therefore samples of each ixazomib citrate form (including amorphous, M1, M2, M3, and M4) were analyzed by PXRD on a BRUKER D-8 Discover powder diffractometer equipped with a goniometer of θ/2θ configuration and Lynx Eye detector. The Cu-anode X-ray tube was operated at 40 kV and 30 mA. The experiments were conducted over the 2θ range of 2.0°-50.0°, 0.030° step size, and 0.4 seconds step time.

With `CC(C)C[C@H](NC(=O)CNC(=O)c1cc(Cl)ccc1Cl)B1OC(=O)C(CC(=O)O)(CC(=O)O)O1` [Form M2, 2,2′-{2-[(1R)-1-({[(2,5-dichlorobenzoyl)amino]acetyl}amino)-3-methylbutyl]-5-oxo-1,3,2-dioxaborolane-4,4-diyl}diacetic acid], the “Long-term physical stability (change in PXRD pattern)” value (1, 3 and 6 months stored at 5±3° C., at 25° C./60% and at 40° C./75% relative humidity (RH)) is recorded as “does not show any change in PXRD pattern”. Further, the “Polymorph by PXRD” value runs as follows: (at 5 ± 3° C., 1 month) “Form M2”; (at 5 ± 3° C., 3 months) “Form M2”; (at 5 ± 3° C., 6 months) “Form M2”; (at 5 ± 3° C., Initial) “Form M2”; (at 25° C./60% RH, 1 month) “Form M2”; (at 25° C./60% RH, 3 months) “Form M2”. Moreover, the “Polymorph by PXRD” value runs as follows: (at 25° C./60% RH, 6 months) “Form M2”; (at 25° C./60% RH, Initial) “Form M2”; (at 40° C./75% RH, 1 month) “Form M2”; (at 40° C./75% RH, 3 months) “Form M2”; (at 40° C./75% RH, 6 months) “Form M2”; (at 40° C./75% RH, Initial) “Form M2”.
